According to patent US6362369B1, “Phthalic acid diamide derivatives fluorine-containing aniline compounds as starting material, agricultural and horticultural insecticides, and a method for application of the insecticides” (Nihon Nohyaku Co., Ltd., priority 1997, dated 2002):

What was measured:
Format in all cases: in vivo
[1] = tested on: diamondback moth (Plutella xylostella); test: Insecticidal effect on diamondback moth (Test Example 1); details: mortality judged according to the criterion shown in Test Example 1
Summary of the method: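 Chinese cabbage seedlings carrying eggs laid by released adult moths were immersed in treatment, air-dried and held at 25° C. Hatched insects were counted six days after immersion, and mortality was calculated and scored against a fixed criterion. Three replicate groups of 10 insects were used.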

[2] = tested on: common cutworm (Spodoptera Litura); test: Insecticidal effect on common cutworm (Test Example 2); details: 500 ppm, cabbage leaf dip, second-instar larvae, eight days after inoculation, 25° C.
Summary of the method: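 After the treated material air-dries, it goes into a dish, second-instar larvae are added, and the dish is closed. Incubation runs at 25° C. On day eight, dead and living larvae are scored, and the calculated mortality is rated on an effect scale.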

[3] = tested on: rice leafroller (Cnaphalocrocis medinalis); test: Insecticidal effect on rice leafroller (Test Example 3); details: 500 ppm, rice lamina dip, third-instar larvae, four days after inoculation, 25° C., humidity 70%
Summary of the method: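 Groups of 10 third-instar larvae, in triplicate, are placed on air-dried lamina resting on wet filter paper. Incubation runs four days at 25° C with 70% humidity before survivors and dead are tallied.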

Row | SMILES | Insecticidal effect on diamondback moth (Test Example 1), judged grade [1] | Insecticidal effect on common cutworm (Test Example 2), judged grade [2] | Insecticidal effect on rice leafroller (Test Example 3), judged grade [3]
1 | Cc1cc(OC(F)(F)C(F)(Br)C(F)(F)F)ccc1NC(=O)c1c(I)cccc1C(=O)NC(C)C (stereo not drawn) [compound 446] | A (100) | A (100) | A (100)
2 | Cc1cc(OCC(F)(F)C(F)F)ccc1NC(=O)c1c(I)cccc1C(=O)NC(C)C [compound 447] | A (100) | B (99-90) | C (89-80)
3 | Cc1cc(OC(F)(F)Br)ccc1NC(=O)c1c(I)cccc1C(=O)NC(C)C [compound 452] | A (100) | A (100) | A (100)
4 | Cc1cc(OC(F)(F)C(F)F)ccc1NC(=O)c1c(I)cccc1C(=O)NC(C)C [compound 453] | A (100) | D (79-50) | A (100)
5 | Cc1cc(OC(F)(F)C(F)F)c(Cl)cc1NC(=O)c1c(I)cccc1C(=O)NC(C)C [compound 454] | A (100) | A (100) | A (100)
6 | Cc1cc(OC(F)(F)C(F)Cl)ccc1NC(=O)c1c(I)cccc1C(=O)NC(C)C (stereo not drawn) [compound 455] | A (100) | B (99-90) | A (100)
7 | Cc1cc(OC(F)(F)C(F)OC(F)(F)F)ccc1NC(=O)c1c(I)cccc1C(=O)NC(C)C (stereo not drawn) [compound 457] | A (100) | A (100) | B (99-90)
8 | CC(C)NC(=O)c1cccc(I)c1C(=O)Nc1ccc(C(F)(F)C(F)(F)C(F)(F)F)cc1Cl [compound 468] | A (100) | A (100) | B (99-90)
9 | Cc1cc(OC(F)F)ccc1NC(=O)c1c(I)cccc1C(=O)NC(C)C [compound 469] | A (100) | A (100) | D (79-50)
10 | Cc1cc(OC(F)F)c(Cl)cc1NC(=O)c1c(I)cccc1C(=O)NC(C)C [compound 470] | A (100) | C (89-80) | C (89-80)
11 | CC(C)NC(=O)c1cccc(I)c1C(=O)Nc1ccc(OC(F)F)c(C(F)(F)F)c1 [compound 471] | A (100) | A (100) | A (100)
12 | CC(C)NC(=O)c1c(F)cccc1C(=O)Nc1ccc(C(F)(F)C(F)(F)C(F)(F)F)cc1 [compound 473] | A (100) | A (100) | A (100)
13 | CC(C)NC(=O)c1c(F)cccc1C(=O)Nc1ccc(C(F)(C(F)(F)F)C(F)(F)F)cc1 [compound 474] | A (100) | B (99-90) | A (100)
14 | CC(C)NC(=O)c1c(F)cccc1C(=O)Nc1ccc(OC(F)(F)C(F)OC(F)(F)C(F)(F)C(F)(F)F)cc1 (stereo not drawn) [compound 476] | A (100) | A (100) | A (100)
15 | CC(C)NC(=O)c1c(F)cccc1C(=O)Nc1ccc(SC(F)(F)C(F)(F)Br)cc1 [compound 480] | A (100) | B (99-90) | A (100)
16 | CC(C)NC(=O)c1c(F)cccc1C(=O)Nc1cccc(Cl)c1Cl [compound 488] | A (100) | A (100) | A (100)
17 | Cc1c(Cl)cccc1NC(=O)c1cccc(F)c1C(=O)NC(C)C [compound 489] | A (100) | A (100) | A (100)
18 | Cc1cc(Cl)ccc1NC(=O)c1cccc(F)c1C(=O)NC(C)C [compound 490] | A (100) | A (100) | A (100)
19 | Cc1ccc(Cl)cc1NC(=O)c1cccc(F)c1C(=O)NC(C)C [compound 491] | A (100) | A (100) | A (100)
20 | Cc1cc(I)ccc1NC(=O)c1cccc(F)c1C(=O)NC(C)C [compound 492] | A (100) | A (100) | A (100)
21 | Cc1ccc(F)cc1NC(=O)c1cccc(F)c1C(=O)NC(C)C [compound 493] | A (100) | A (100) | A (100)
22 | Cc1cc(C(F)(F)C(F)(F)F)ccc1NC(=O)c1cccc(F)c1C(=O)NC(C)C [compound 495] | A (100) | A (100) | A (100)
23 | Cc1cc(C(F)(F)C(F)(F)C(F)(F)F)ccc1NC(=O)c1cccc(F)c1C(=O)NC(C)C [compound 496] | A (100) | A (100) | A (100)
24 | Cc1cc(C(F)(F)C(F)(F)C(F)(F)C(F)(F)F)ccc1NC(=O)c1cccc(F)c1C(=O)NC(C)C [compound 498] | A (100) | A (100) | A (100)
25 | Cc1c(NC(=O)c2cccc(F)c2C(=O)NC(C)C)cccc1OC(F)F [compound 499] | A (100) | A (100) | A (100)
26 | Cc1cc(OC(F)F)ccc1NC(=O)c1cccc(F)c1C(=O)NC(C)C [compound 500] | A (100) | B (99-90) | A (100)
27 | Cc1cc(OC(F)(F)C(Cl)(Cl)Cl)ccc1NC(=O)c1cccc(F)c1C(=O)NC(C)C [compound 501] | A (100) | A (100) | A (100)
